{"source": "patent US20050245613A1", "about": "“Use of gaba-b receptor positive modulators in gastro-intestinal disorders” (priority 2002, published 2005)", "origin": "cited, not measured here", "key": {"[1]": {"test_system": "vagal afferent and efferent fibers"}, "[2]": {"test_system": "healthy subjects"}, "[3]": {"test_system": "GERD patients"}, "[4]": {"test_system": "ferrets"}, "[5]": {"test_system": "GERD patients", "conditions": "long-term recording of esophageal pH"}, "[6]": {"test_system": "dogs"}}, "data": [{"smiles": "NCC(CC(=O)O)c1ccc(Cl)cc1", "note": "(stereo not drawn) [Baclofen]", "values": [{"measurement": "sensitivity of vagal afferent and efferent fibers", "setting": "[1]", "result": "reduce the sensitivity of vagal afferent and efferent fibers"}, {"measurement": "frequency of TLESR", "setting": "[2]", "result": "reduces the frequency of TLESR"}, {"measurement": "frequency of TLESR", "setting": "[3]", "result": "reduces the frequency of TLESR"}, {"measurement": "frequency of TLESR", "setting": "[4]", "result": "reduces the frequency of TLESR"}, {"measurement": "esophageal acid exposure", "setting": "[5]", "result": "significant reduction in esophageal acid exposure"}, {"measurement": "frequency of TLESR", "setting": "[6]", "result": "reduces the frequency of TLESR"}]}]}
